Reference: paper PMC8196580, “Identification of Kaurane-Type Diterpenes as Inhibitors of Leishmania Pteridine Reductase I” (Molecules, 2021)
Where two headings read alike, the source gives them in different places.

Columns and labels:
L. major [1] = test system: L. major; parameters: method as in ChEMBL; settings: ref ChEMBL, cited from earlier work
L. major [2] = assay: ChEMBL dataset of pIC50 values against L. major used for the RF model (Table S1); assay type: cell-based, Leishmania major; further: call rule not given here
[3] = ChemBL structures with pIC50 values used for Random forest model construction, L. major
[4] = Active/Inactive class assigned to the ChEMBL pIC50 value for Random forest model construction, ref ChEMBL
[5] = ChemBL structures with pIC50 values used for Random forest model construction (Table S1)
[6] = Active/Inactive class assigned to ChemBL structures for Random forest model construction (Table S1)

Structure (SMILES) | pIC50 Value (L. major [1]; [3]) | Outcome (L. major [2]; [4]) | pIC50 Value (L. major [1]; [5]) | Outcome (L. major [2]; [6])
Cc1ccc(/C=C2/C(=O)NN(c3ccc(F)cc3)C2=O)o1 [CHEMBL1256858] | 4.04 | Inactive | – | –
Cc1ccc(N2NC(=O)/C(=C/c3cc4c(cc3Cl)OCO4)C2=O)cc1C [CHEMBL1256889] | 4.52 | Inactive | – | –
COc1ccc(-c2csc3c2C2=NCCN2C=N3)cc1OC [CHEMBL1256890] | 4.00 | Inactive | – | –
NP(=O)(OCc1ccccc1[N+](=O)[O-])N(CCCl)CCCl (stereo not shown) [CHEMBL1256928] | 4.52 | Inactive | – | –
COC(=O)c1c(O)c(C#N)c2n(c1=O)CCc1cc(OC)c(OC)cc1-2 [CHEMBL1256930] | 4.28 | Inactive | – | –
CN(C)Cc1c(O)ccc2c(=O)c(-c3cnn(-c4ccccc4)c3)coc12 [CHEMBL1256931] | 4.13 | Inactive | – | –
NP(=O)(OCc1cccc([N+](=O)[O-])c1)N(CCCl)CCCl (stereo not shown) [CHEMBL1256964] | 4.52 | Inactive | – | –
COc1cc([N+](=O)[O-])ccc1COP(N)(=O)N(CCCl)CCCl (stereo not shown) [CHEMBL1256965] | 4.81 | Inactive | – | –
COc1cc(COP(N)(=O)N(CCCl)CCCl)ccc1[N+](=O)[O-] (stereo not shown) [CHEMBL1256966] | 4.52 | Inactive | – | –
Cc1cc(COP(N)(=O)N(CCCl)CCCl)ccc1[N+](=O)[O-] (stereo not shown) [CHEMBL1256989] | 4.52 | Inactive | – | –
NP(=O)(OCc1ccc([N+](=O)[O-])c(F)c1)N(CCCl)CCCl (stereo not shown) [CHEMBL1256990] | 5.04 | Active | – | –
NP(=O)(OCc1ccc([N+](=O)[O-])cc1F)N(CCCl)CCCl (stereo not shown) [CHEMBL1256991] | – | – | 5.33 | Active
NP(=O)(OCc1ccc([N+](=O)[O-])cc1C(F)(F)F)N(CCCl)CCCl (stereo not shown) [CHEMBL1257016] | 5.23 | Active | – | –
NP(=O)(OCc1ccc([N+](=O)[O-])cc1Cl)N(CCCl)CCCl (stereo not shown) [CHEMBL1257017] | – | – | 5.51 | Active
NP(=O)(OCc1c(F)cc([N+](=O)[O-])cc1F)N(CCCl)CCCl (stereo not shown) [CHEMBL1257018] | – | – | 5.89 | Active
CC1=N[C@H](C)Cc2c(-c3ccc(C(F)(F)F)cc3)ccc(O)c21 [CHEMBL1275619] | 4.00 | Inactive | – | –
CC1(C)Cc2c(Br)ccc(O)c2C=N1 [CHEMBL1275726] | 4.00 | Inactive | – | –
CC(C)Oc1cc(NC(=N)c2ccccn2)ccc1-c1ccc(-c2ccc(NC(=N)c3ccccn3)cc2OC(C)C)o1 [CHEMBL1275764] | – | – | 7.85 | Active
COc1ccc(-c2ccccc2)c2c1C(C)=N[C@H](C)C2 [CHEMBL1275787] | 4.00 | Inactive | – | –
CC1=N[C@H](C)Cc2c(-c3ccccc3)ccc(O)c21 [CHEMBL1275788] | 4.00 | Inactive | – | –
CC1=N[C@H](C)Cc2c(-c3ccc(C)cc3)ccc(O)c21 [CHEMBL1275822] | 4.07 | Inactive | – | –
CC1=N[C@H](C)Cc2c(-c3ccc(Cl)cc3)ccc(O)c21 [CHEMBL1275824] | 4.00 | Inactive | – | –
CC1=N[C@H](C)Cc2c(-c3cccc(Cl)c3)ccc(O)c21 [CHEMBL1275866] | 4.28 | Inactive | – | –
CC1=C(C(=O)OC(C)C)C(c2cccc([N+](=O)[O-])c2)C(C(=O)OC2CN(C(c3ccccc3)c3ccccc3)C2)=C(N)N1 (stereo not shown) [CHEMBL1275868] | 4.77 | Inactive | – | –
CCOc1cc(NC(=N)c2ccccn2)ccc1-c1ccc(-c2ccc(NC(=N)c3ccccn3)cc2OCC)o1 [CHEMBL1276549] | – | – | 7.59 | Active
CC1=N[C@H](C)Cc2c(-c3cccc4ccccc34)ccc(O)c21 [CHEMBL1276916] | 4.87 | Inactive | – | –
